Laboratory results published in the supplement of paper PMC5412046.
Counter-ions that a name gives are not always drawn.

Experiments:
[1] = test system: SB.mhdgc-1; assay: area under the dose-response curve of % viability (trapezoidal, 11 doses) (% viability x log10 concentration); higher = less cytotoxic; details: SB.mhdgc-1 (hereditary c.1380delA CDH1 gastric cancer)
Summary of the method: (§1)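 Viability, normalised to DMSO, is listed either at the highest concentration or as trapezoidal area under the curve. It was measured in patient-derived gastric cancer cells, hereditary or sporadic, exposed for 48 h to 11 threefold-diluted compound concentrations and then assayed with CellTiter-Glo luminescence.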

[2] = test system: SB.msgc-1; assay: as above; details: SB.msgc-1 (sporadic gastric cancer)
Summary of the method: as §1

[3] = test system: SB.mhdgc-1; assay: viability at highest tested concentration (MAXR) relative to DMSO; higher = less cytotoxic; details: SB.mhdgc-1 (hereditary c.1380delA CDH1 gastric cancer)
Summary of the method: as §1

[4] = test system: SB.msgc-1; assay: as above; details: SB.msgc-1 (sporadic gastric cancer)
Summary of the method: as §1

Row | Compound | area under the dose-response curve [1] | area under the dose-response curve [2] | viability [3] | viability [4]
1 | ClC1=CC\2=C(NC(=O)\C(=C2N[C@@H]3CN4CCC3CC4)C5=NC6=C([NH]5)C=CC=C6)C=C1 [CHIR-124] (top concentration 46.0829 µM) | 340 | 355 | 5.59% | 13.9%
2 | CC/1=C(/N2[C@H](SC1)[C@H](NC(=O)C(N)C3=CC=CC=C3)C2=O)C(O)=O (stereo not given in full) [Cephalexin] (top concentration 46.0829 µM) | 543 | 528 | 65% | 117%
3 | CN(C)/[N+]([O-])=N/Oc1cc(ON[N+](=O)N2CCN(C(=O)c3cc(Cc4n[nH]c(=O)c5ccccc45)ccc3F)CC2)c([N+](=O)[O-])cc1[N+](=O)[O-] [JS-65-103] (top concentration 46.0829 µM) | 480 | 534 | 5.91% | 68.2%
4 | OC[C@H]1OC(O)C[C@@H](O)[C@@H]1O (stereo not given in full) [2-Deoxyglucose] (top concentration 46.0829 µM) | 520 | 549 | 117% | 117%
5 | CC(C)(O)c1cc2nc(-c3cnc(N)nc3)nc(N3CCOCC3)c2s1 [GNE-493] (top concentration 46.0829 µM) | 319 | 384 | 32.3% | 43.9%
6 | O=C1\C=C/C=C2/[C@H]3CNC[C@H](C3)CN12 [Cytisine] (top concentration 46.0829 µM) | 455 | 454 | 62.4% | 16.6%
7 | C[C@@H](Oc1cc(-n2cnc3ccc(CN4CCN(C)CC4)cc32)sc1C(N)=O)c1ccccc1C(F)(F)F (top concentration 46.0829 µM) | 287 | 374 | 6.24% | 56.5%
8 | CCOC(=O)/C=C/[C@H](C[C@@H]1CCNC1=O)NC(=O)[C@@H](CC(=O)[C@@H](NC(=O)c1cc(C)on1)C(C)C)Cc1ccc(F)cc1 [Rupintrivir] (top concentration 46.0829 µM) | 539 | 549 | 90.8% | 113%
9 | C[C@@H]1CN(Cc2ccc(F)cc2)[C@@H](C)CN1C(=O)c1cc2c(C(=O)C(=O)N(C)C)cn(C)c2cc1Cl [Talmapimod] (top concentration 46.0829 µM) | 441 | 490 | 41.1% | 74.1%
10 | N#CCNC(=O)c1ccc(-c2ccnc(Nc3ccc(N4CCOCC4)cc3)n2)cc1 [CYT387] (top concentration 46.0829 µM) | 534 | 474 | 47.3% | 26.9%
11 | CC[C@H]1/C=C\C=C/C[C@@H](C)[C@H](O)[C@@](C)(O)C(=O)[C@@H](C)[C@H](O)[C@@H](C)C(=O)[C@@H](C)[C@H](O)[C@@H](C)/C=C/C(=O)O[C@@H]2[C@H](C)[C@H](CC1)O[C@]1(CC[C@H](C)[C@H](C[C@@H](C)O)O1)[C@H]2C [Oligomycin A] (top concentration 46.0829 µM) | 280 | 272 | 8.61% | 41%
12 | COc1cc2c(cc1OC)C1CC(=O)C(CC(C)C)CN1CC2 (stereo not given) [Tetrabenazine] (top concentration 46.0829 µM) | 566 | 538 | 102% | 98.4%
13 | COc1cc(N2CCC(C(N)=O)CC2)ccc1Nc1nc(N)c(Cl)c(Nc2ccccc2[S+](=O)([O-])C(C)C)n1 (top concentration 46.0829 µM) | 417 | 411 | 27.7% | 28.1%
14 | Nc1ccn([C@H]2CS[C@@H](CO)O2)c(=O)n1 [Lamivudine] (top concentration 92.1659 µM) | 458 | 516 | 73.8% | 104%
15 | N[C@@H](Cc1c[nH]c2ccc(O)cc12)C(=O)O [5-Hydroxytryptophan] (top concentration 46.0829 µM) | 400 | 505 | 83.1% | 72.9%
16 | CCCCOc1ccc(CC(=O)NO)cc1 [Bufexamac] (top concentration 46.0829 µM) | 479 | 494 | 1.95% | 56.1%
17 | COc1cccc(N(C)C(=S)Oc2ccc3c(c2)CCCC3)n1 [Liranaftate] (top concentration 46.0829 µM) | 517 | 507 | 90.5% | 73.7%
18 | C[C@](O)(COc1ccc(C#N)cc1)C(=O)Nc1ccc(C#N)c(C(F)(F)F)c1 [Ostarine] (top concentration 46.0829 µM) | 469 | 301 | 66.9% | 21%
19 | Cc1ccc(C(N)=O)cc1Nc1nccc(-c2cn(C(C)C)c3cnccc23)n1 (top concentration 46.0829 µM) | 441 | 456 | 55.7% | 58.3%
20 | O=P(O)(O)C(O)(Cc1cccnc1)P(=O)(O)[O][Na] (stereo not given) [Risedronate sodium] (top concentration 46.0829 µM) | 506 | 559 | 112% | 107%
21 | CNC(=O)c1ccccc1Nc1nc(Nc2ccc(N3CCOCC3)cc2OC)ncc1Cl [NVP-TAE226] (top concentration 46.0829 µM) | 392 | 448 | 21.2% | 39.1%
22 | CC(C)C(=O)Oc1ccc(CO)cc1[C@H](CCN(C(C)C)C(C)C)c1ccccc1 [Fesoterodine fumarate] (top concentration 46.0829 µM) | 446 | 512 | 70.3% | 86.3%
23 | COC1=CC=C2/C3=N/CCN3\C(=N/C2=C1OC)NC(=O)C4=CC=CN=C4 [PIK-90] (top concentration 46.0829 µM) | 415 | 474 | 27.3% | 40.5%

Row | Compound | area under the dose-response curve [1] | area under the dose-response curve [2] | viability [3] | viability [4]
24 | Clc1cc(Cl)cc(CNc2ncncc2-c2ccc3c(c2)OCO3)c1 (top concentration 46.0829 µM) | 433 | 485 | 59.8% | 43%
25 | COc1cc2ncnc(Nc3cccc(Cl)c3)c2cc1OC [AG-1478] (top concentration 46.0829 µM) | 308 | 372 | 19.2% | 35.8%
26 | NC(=O)c1cccc2nc(-c3ccc([C@H]4CCCN4)cc3F)[nH]c12 (top concentration 46.0829 µM) | 507 | 477 | 62.3% | 91.3%
27 | C[C@]12CC[C@@H]3c4ccc(O)cc4CC[C@H]3[C@@H]1[C@@H](O)[C@@H](O)[C@@H]2O [Estetrol] (top concentration 46.0829 µM) | 439 | 549 | 7.6% | 78.6%
28 | Nc1ncnc2c1ncn2[C@@H]1O[C@@H](CO)[C@H](O)[C@@H]1O [Vidarabine] (top concentration 34.4879 µM) | 552 | 586 | 89.7% | 109%
29 | CC(=O)OC[C@@H]1O[C@H]([C@H](OC(C)=O)[C@@H]1OC(C)=O)N2\C=C/C(=O)NC2=O [Uridine triacetate] (top concentration 46.0829 µM) | 572 | 524 | 104% | 112%
30 | Oc1nc(-c2ccc(C(F)(F)F)cc2)nc2c1CSCC2 [NVP-XAV-939] (top concentration 46.0829 µM) | 545 | 517 | 60.6% | 66.7%
31 | CN(C)c1ccc2cc(C(=O)N[C@@H](CCCNC(=N)CCl)C(=O)NCc3ccccc3)ccc2c1 [YW3-56] (top concentration 46.0829 µM) | 507 | 459 | 2.58% | 19.8%
32 | CC1(C)CCC[C@]2(C)[C@H]3CC(=O)O[C@]3(C)CC[C@@H]12 [Sclareolide] (top concentration 46.0829 µM) | 573 | 530 | 65% | 50.1%
33 | CCc1nc(N)nc(N)c1-c1ccc(Cl)cc1 [Pyrimethamine] (top concentration 46.0829 µM) | 455 | 322 | 58.8% | 27.6%
34 | O=C([O-])[C@H](CC(=O)N1C[C@H]2CCCC[C@H]2C1)Cc1ccccc1 [Mitiglinide calcium hydrate] (top concentration 46.0829 µM) | 547 | 549 | 114% | 109%
35 | COC(=O)\C1=C\CCN(C)C1 [Arecoline] (top concentration 46.0829 µM) | 551 | 565 | 52.9% | 58.9%
36 | O=C1\C=C/C[C@@H]2[C@H]3CCCN4CCC[C@@H](CN12)[C@@H]34 [Sophocarpine] (top concentration 46.0829 µM) | 598 | 395 | 87% | 31.1%
37 | CN(C)C(=O)c1ccc([S+](=O)([O-])c2ccc(NC(=O)[C@@](C)(O)C(F)(F)F)c(Cl)c2)cc1 [AZD-7545] (top concentration 46.0829 µM) | 460 | 515 | 57.4% | 68.5%
38 | CO[C@H]1C[C@@H]2CC[C@@H](C)[C@@](O)(O2)C(=O)C(=O)N2CCCC[C@H]2C(=O)O[C@H]([C@H](C)C[C@@H]2CC[C@@H](OCCO)[C@H](OC)C2)CC(=O)[C@H](C)/C=C(/C)[C@@H](O)[C@@H](OC)C(=O)[C@H](C)C[C@H](C)\C=C/C=C\C=C/1C [Everolimus] (top concentration 46.0829 µM) | 356 | 466 | 41% | 79.6%
39 | C[C@]\12CC[C@H](O)CC1=C/C[C@@H]3[C@@H]2CC[C@@]\4(C)[C@H]3C\C=C4C5=CN=CC=C5 [Abiraterone] (top concentration 23.0415 µM) | 501 | 549 | 82.9% | 77.5%
40 | CC(C)C(=O)Nc1ncc(-c2cc(C(F)F)nn2-c2c(Cl)cccc2Cl)s1 [BMS-5] (top concentration 46.0829 µM) | 459 | 514 | 41.3% | 34.6%
41 | Cc1ccc(Nc2cc(-c3cccc(N4C(=O)c5ccccc5C4=O)c3)ncn2)cc1N[S+](C)(=O)[O-] [CDK9 inhibitor] (top concentration 46.0829 µM) | 423 | 492 | 43.4% | 31.5%
42 | CN(C)CCN(Cc1ccc(Cl)cc1)c1ccccn1.Cl [Halopyramine] (top concentration 46.0829 µM) | 452 | 266 | 51.1% | 10.4%
43 | C[C@H]1CCC/C=C/C2C[C@H](O)C[C@H]2[C@H](O)/C=C/C(=O)O1 (stereo not given in full) [Cyanein] (top concentration 46.0829 µM) | 39.8 | 129 | 5.24% | 32.8%
44 | CCOC(=O)N1CCN(/[N+]([O-])=N/Oc2cc(O/N=[N+](\[O-])N3CCN(C(=O)OCC)CC3)c([N+](=O)[O-])cc2[N+](=O)[O-])CC1 [Double JS-K] (top concentration 46.0829 µM) | 432 | 511 | 4.82% | 3.75%
45 | CC(/C=C1\SC(=S)N(CC(=O)O)C1=O)=C\c1ccccc1 [Epalrestat] (top concentration 46.0829 µM) | 499 | 565 | 84.9% | 104%
